In US12589103B2, “Antimicrobial and antiviral effects of C2-C7 alkyl boronic acids” (CORNELL UNIVERSITY, priority 2019, dated 2026):
“Also recorded” adds a separate entry of the source.

Experiments:
nF-κB = assay: E. coli induced nF-κB activation in HEK-Blue KD-TLR5 cells (SEAP reporter); format: cell-based; conditions: m.o.i 20, SEAP at 24 h
Experimental: HEK-Blue KD-TLR5 cells were used to detect the promotor activation of nF-κB by E. coli infection with or without boric or boronic acid treatment. nF-κB is the prototypical transcription factor for pro-inflammatory cytokines in epithelium. Briefly, cells were seeded in 96-well plates at a density of 5×10^4 cells per well. E. coli was diluted into fresh cell medium containing either NaCl (Control), boric or boronic acid at an m.o.i of 200 as 10× inocula, followed by addition of this inoculum (10 μl) into each well containing 100 μl of medium for a final m.o.i of 20. At 3 h post infection, the cell medium was carefully removed from each well, and replaced with 100 μl of fresh medium containing gentamycin (200 μg mL^−1). At 24 h post infection, the spent medium was collected, and centrifuged at 12,000 r.p.m. for 5 min to remove any particulate matter. QUANTI-Blue Kit (InvivoGen, San Diego, CA, USA) was used to detect the reporter protein SEAP (secreted alkaline phosphatase) following the manufacturer's instructions.

[1] = tested on: Feline Infectious Peritonitis Virus (FIPV) Black (TN-406); assay: FIPV replication and syncytium formation, immunofluorescence; format: cell-based, Feline Coronavirus type I; conditions: 10, 20, 30, 40 mM; Feline Lung cells, 18 h post-infection
Salmonella [2] = assay: Soft agar motility assay, Salmonella; format: cell-based; conditions: % motility of the control
Experimental: (§1) The ability of ABA C1-3 and BA to impact the motility of E. coli and Salmonella was evaluated using sloppy agar treated with and without BA and C1-C3 alkyl boronic acids. Motility is strongly linked to the virulence phenotype of these bacterial strains. E. coli was grown overnight at 37° C. in LB broth. Soft agar plates (1% tryptone, 0.5% NaCl, 0.25% agar) were prepared the day before the assay was carried out. Sterile NaCl (control), boric or boronic acid stock solution was added into the agar right before pouring the plates. The overnight cultures of E. coli were transferred (3 μl) on to the center of each plate, followed by incubation of the plates at 37° C. for 10 h. E. coli motility was quantified by measuring the diameter of the circular swarming area formed by the growing motile bacteria.

[3] = tested on: typhoid toxin B subunit (CdtB); format: cell-based, Salmonella typhi
Salmonella [4] = assay: Growth of five Salmonella strains; format: cell-based
Experimental: (§2) The control sample contained 40 mM NaCl.

[5] = tested on: diarrheagenic E. coli and APEC; assay: Growth of diarrheagenic and APEC E. coli in LB media; format: cell-based; conditions: 30 mM
Experimental: as §2
Diarrheagenic E. coli pathogroups differ by their preferential host colonization sites, virulence mechanisms, and clinical symptoms.

[6] = tested on: AIEC E. coli isolated from people (MDR and non-MDR strains); assay: Growth of MDR and non-MDR E. coli associated with Crohn's disease; format: cell-based; conditions: 40 mM, LB broth, 48 hrs
Experimental: (§3) The ability of C1-C3 alkyl boronic acids and BA to impact the growth of MDR E. coli isolated from people and dogs was evaluated using a temperature controlled 96-well multiplate incubator at 37° C. over 48 hrs. Growth in media (LB broth) with and without ABA C2-6 (40 mM) was monitored by readings at OD600 with the AUC of the growth curve calculated.

[7] = tested on: AIEC and cancer associated E. coli; assay: Soft agar motility assay, E. coli; format: cell-based; conditions: 10 h, AIEC NC101, 541-1, cancer associated E. coli
Experimental: as §1

[8] = tested on: AIEC E. coli from dogs (MDR and non-MDR strains); assay: Growth of MDR and non-MDR E. coli associated with Granulomatous colitis in dogs; format: cell-based; conditions: 40 mM, LB broth, 48 hrs
Experimental: as §3
Non-MDR strains KD1, KD2, and KD3 were also evaluated.

[9] = tested on: probiotic Lactobacillus spp; assay: Growth of probiotic Lactobacillus strains; conditions: three Lactobacillus strains
AIEC 541-1 and LF82 = assay: Adhesion and invasion of Caco-2 cells by AIEC; format: cell-based, E. coli; conditions: 30 mM, m.o.i 10, 3 h
Experimental: E. coli was cultured overnight in LB at 37° C. with shaking. Bacterial pellets were re-suspended in PBS before dilution in cell culture media±30 mM boronic acid or alkyl boronic acid to an m.o.i (multiplicity of infection) of 10. Caco-2 cells were infected with the diluted E. coli for 3 h at 37° C. before washing with PBS, then lysed with 1% Triton X-100. Serial dilutions of the lysates were made in PBS and plated on LB agar. The total number of colonies recovered was used to calculate the number of adherent bacteria. For invasion assays, cells were treated with gentamicin (100 μg mL−1) for one hour after initial infection and 3× wash with PBS to kill extracellular bacteria. Cells were then washed 3× after gentamicin treatment, lysed and plated as described above.

[10] = tested on: AIEC in murine macrophage J774A.1 cells; assay: Uptake and survival of AIEC in J774A.1 macrophages; format: cell-based, E. coli
FIPV = conditions: known drugs; cited from earlier work
[11] = biological target: T1, 3CL protease of the FIP virus (Feline coronavirus, UniProt Q98VG9); conditions: cited from earlier work
T1 construct: 3CL protease of the FIP virus
T1 sequence (Q98VG9 2904-3205): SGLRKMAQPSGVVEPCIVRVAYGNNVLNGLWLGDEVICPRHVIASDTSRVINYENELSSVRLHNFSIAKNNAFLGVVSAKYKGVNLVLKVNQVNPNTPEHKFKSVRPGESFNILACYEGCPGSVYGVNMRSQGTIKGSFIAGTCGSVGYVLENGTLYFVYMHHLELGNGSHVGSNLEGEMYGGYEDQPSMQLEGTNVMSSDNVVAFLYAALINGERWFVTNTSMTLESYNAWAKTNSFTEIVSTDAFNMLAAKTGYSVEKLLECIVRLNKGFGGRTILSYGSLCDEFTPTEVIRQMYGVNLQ

Structure (SMILES): CCCB(O)O [PBA]
- induction of nF-κB by E. coli (nF-κB): reduced the induction of nF-κB by E. coli
- replication and syncytium formation of FIPV [1]: inhibited replication and syncytium formation of FIPV in infected cells
- motility of Salmonella (Salmonella [2]): highly effective at blocking motility of Salmonella
- typhoid toxin (CdtB) production [3]: inhibition of toxin production (CdtB)
- degree of cytopathic effect (Caco-2 cells): EBA<BA<PBA
- inhibition of growth of Salmonella serovars (Salmonella [4]): inhibit the growth of multiple serovars of Salmonella more effectively than BA
- inhibition of growth of diarrheagenic and APEC E. coli [5]: have activity versus the diarrheagenic E. coli and APEC that varies by pathogroup; also recorded: more effective in inhibiting bacterial growth than BA overall
- growth inhibition of Crohn's disease associated AIEC, MDR and non-MDR [6]: more effective than BA over a wider range of AIEC, including MDR and non-MDR strains
- motility of E. coli [7]: highly effective at blocking motility of AIEC and cancer associated E. coli
- growth inhibition of canine Granulomatous colitis associated AIEC, MDR and non-MDR [8]: more effective than BA over a wider range of AIEC, including MDR and non-MDR strains
- growth of probiotic Lactobacillus spp [9]: do not suppress growth
- adhesion and invasion of Caco-2 by AIEC (AIEC 541-1 and LF82): suppress adhesion and invasion of Caco-2 by AIEC 541-1 and LF82
- cytotoxicity in antiviral assay (Feline Lung cells): Cytotoxicity was not observed at antiviral doses
- survival of AIEC in J774A.1 macrophages ([10]; 30 mM during infection, 24 h post infection): inhibited the survival
- uptake of AIEC by J774A.1 macrophages ([10]; 30 mM, 1 h): inhibited the uptake

Structure (SMILES): CC(C)C[C@H](NC(=O)OCc1ccccc1)C(=O)N[C@@H](C[C@@H]1CCNC1=O)C(O)S(=O)(=O)[O-].[Na+] (some centres unmarked) [GC376]
- efficacy against FIPV (FIPV): some efficacy against FIPV
- inhibition of FIP virus 3CL protease [11]: inhibited
